Test results: patent publication US12661362B2, “Methods for the prevention and treatment of hearing loss” (Ting Therapeutics LLC, priority 2020, dated 2026)

Test system: FVB/NJ mice
Experiment: Noise-induced hearing loss in FVB/NJ mice (ABR, DPOAE, wave-I, CtBP2 ribbon count)
Type: in vivo, mouse
Description: Now referring to FIGS. 4A-4F Niclosamide attenuates Cisplatin-induced hearing loss in FVB/NJ mice. Mice: Procedures used with mice were approved by the Institutional Animal Care and Use Committee (IACUC) at the Creighton University. For functional assessments including Cisplatin and noise exposure experiments 5 to 7-week-old FVB/NJ mice obtained from Jackson Laboratory (Bar Harbor, ME, USA) were used, with a mix of males and females across experiments. For the Cisplatin and noise studies, FVB/NJ mice were treated with 10 mg/kg Niclosamide, through intraperitoneal (IP) injection. Niclosamide, was dissolved in 1% DMSO in normal saline (0.9% NaCl solution) and vortexed multiple times before injections. Treatment started 24 hours before the Cisplatin or noise-exposure and continued once daily for 3 more days. Cisplatin was injected IP at 30 mg/kg divided into 2 doses per day. Animals were given 1 mL warm sterile normal saline subcutaneously twice a day before and for 7 days after Cisplatin treatment to prevent dehydration.
Now referring to FIG. 4A, ABR tests were performed 2-3 days before Cisplatin exposure, and 5 days post-Cisplatin exposure. The experimental groups included: Cisplatin and 1% DMSO, Cisplatin and Niclosamide, Niclosamide, only, and age-matched controls receiving normal saline. For the noise experiment, auditory tests were performed 2-3 days prior to noise exposure (paradigm described below), at post-exposure day-1 to monitor temporary threshold shift (TTS) and at post-exposure day-14 to monitor permanent threshold shift (PTS). Experimental groups included: noise-exposure and normal saline, noise-exposure and Niclosamide, Niclosamide-only, and age-matched controls. Following the final auditory function measurements, mice were euthanized, and cochleae were collected for morphological assessment. Based on the results of FVB/NJ ABR/DPOAE threshold variances and power analysis, ten FVB/NJ mice per group (5 of each sex) were used in this study.
Now referring to FIGS. 5B-5F, mice were injected with 10 mg/kg Niclosamide, per IP injection once per day for four consecutive days: one day before noise exposure (8-16 kHz at 105 dB SPL), the day of the noise exposure, and two days after noise exposure. Control animals received vehicle injections on the same schedule.
Now referring to FIG. 5B, Noise-induced ABR threshold shifts were obtained by subtraction of the pre-exposure from the post-exposure thresholds.
Now referring to FIG. 5C, DPOAE amplitudes were measured at f2 frequency ranging from 10 to 80 dB SPL in mice. […] A two-factor ANOVA (group x frequency) was used to compare pre-exposure amplitudes to Day 15 amplitudes.
Now referring to FIG. 5D, mean wave-I amplitudes at 10, 20, 28.3, and 40 kHz were measured at Day 15 post-noise exposure. Amplitudes from the 10-90 dB SPL stimulus intensity were compared between groups in the pre-noise test using a two-factor ANOVA (group x stimulus level), and no group differences were detected. At Day 15, only the 60-90 dB SPL stimulus levels were used because many of the subjects had no responses below 60 dB SPL.
Now referring to FIG. 5E to assess the protection of the ribbon synapses, the cochlear samples were immunostained with CtBP2, one of the most abundant proteins in synaptic ribbon bodies (Kujawa S G, et al. 2006). […] Now referring to FIG. 5F, […] hair cell count of ribbon synapses. […] In the same cochleae, OHCs were also counted. […] The frequency region of 16 kHz was used for CtbP2 ribbon count because this has been shown that ribbons are more abundant in this frequency region.

With O=C(Nc1ccc([N+](=O)[O-])cc1Cl)c1cc(Cl)ccc1O [Niclosamide, 5-chloro-N-(2-chloro-4-nitrophenyl)-2-hydroxy-benzamide] the “noise-induced ABR threshold shifts versus noise exposed group” value (8 kHz to 63 kHz, Day 14, 10 mg/kg IP) was “lower threshold shifts”, the “synaptic ribbon (CtBP2) survival versus saline-noise group” value (16 kHz) was “more synaptic ribbon survival” and the “proportion of surviving OHCs versus saline-noise animals” value (32 kHz) was “similar”. For the same compound, the “wave-I amplitudes versus noise-exposed group” value (80 and 90 dB SPL, Day 15) was “higher amplitudes”, the “wave-I amplitude (cochlear nerve activity) versus age-matched controls” value (Day 15) was “comparable to aged matched controls” and the “DPOAE amplitudes versus noise-saline group” value (day-15 post-noise exposure) was “significantly higher”.
